Measured values as given in US20060083754A1, “Pharmaceutical combinations comprising corticoids and immunosuppressants for treating corticoid- and/or calcineurin inhibitors-resistant diseases” (priority 2003, published 2006).

Assays:
[1] = tested on: human peripheral blood mononuclear cells (PBMC); experiment: T-cell proliferation assay (BrdU ELISA), PBMC stimulated with anti-CD3 mAb + anti-CD28 mAb; assay type: cell-based; details: anti-CD3 mAb (0.1 μg/ml)+anti-CD28 mAb (1 μg/ml); for inhibition at 10 µM / inhibition at 0.03 µM: Homo sapiens, PBMC
[2] = tested on: human peripheral blood mononuclear cells (PBMC); experiment: T-cell proliferation assay (BrdU ELISA), PBMC stimulated with SEB; assay type: cell-based; details: SEB (0.1 μg/ml); for inhibition at 0.03 µM: Homo sapiens, PBMC
[3] = Example 6, 200000 cells/well, DEX 300 nM, ASM 30 nM, BETA 300 nM
[4] = Example 7, 100000 cells/well, DEX 300 nM, ASM 30 nM, BETA 300 nM
[5] = Example 8, 50000 cells/well, DEX 300 nM, ASM 30 nM, BETA 300 nM
[6] = Example 11, 100000 cells/well, DEX 300 nM, ASM 30 nM
[7] = Example 15, 200000 cells/well, DEX 300 nM, FK 30 nM, BETA 300 nM
[8] = Example 16, 100000 cells/well, DEX 300 nM, FK 30 nM, BETA 300 nM
[9] = Example 17, 50000 cells/well, DEX 300 nM, FK 30 nM, BETA 300 nM
[10] = Example 18, 100000 cells/well, DEX 300 nM, FK 30 nM
[11] = Example 9, 200000 cells/well, DEX 300 nM, ASM 30 nM, BETA 300 nM
[12] = Example 10, 100000 cells/well, DEX 300 nM, ASM 30 nM, BETA 300 nM
[13] = Example 12, 100000 cells/well, DEX 300 nM, ASM 30 nM
[14] = Example 1, 200000 cells/well, HC 10 μM, ASM 30 nM, BETA 300 nM
[15] = Example 2, 100000 cells/well, HC 10 μM, ASM 30 nM, BETA 300 nM
[16] = Example 3, 50000 cells/well, HC 10 μM, ASM 30 nM, BETA 300 nM
[17] = Example 13, 200000 cells/well, HC 10 μM, FK 30 nM, BETA 300 nM
[18] = Example 14, 100000 cells/well, HC 10 μM, FK 30 nM, BETA 300 nM
[19] = Example 4, 200000 cells/well, HC 10 μM, ASM 30 nM, BETA 300 nM
[20] = Example 5, 100000 cells/well, HC 10 μM, ASM 30 nM, BETA 300 nM

SMILES: C[C@@H]1C[C@H]2[C@@H]3CCC4=CC(=O)C=C[C@]4(C)[C@@]3(F)[C@@H](O)C[C@]2(C)[C@@]1(O)C(=O)CO [DEX, dexamethasone]
- Normalized OD (% STIM-C) [1, 3]: 87.2 % STIM-C
- Normalized OD (% STIM-C) [1, 4]: 76.5 % STIM-C
- Normalized OD (% STIM-C) [1, 5]: 82.2 % STIM-C
- Normalized OD (% STIM-C) [1, 6]: 76.3 % STIM-C
- Normalized OD (% STIM-C) [1, 7]: 87.2 % STIM-C
- Normalized OD (% STIM-C) [1, 8]: 76.5 % STIM-C
- Normalized OD (% STIM-C) [1, 9]: 82.2 % STIM-C
- Normalized OD (% STIM-C) [1, 10]: 76.3 % STIM-C
- Normalized OD (% STIM-C) ([1]; Example 23, 200000 cells/well, DEX 300 nM, CsA 300 nM, BETA 300 nM, DEX (300 nM)+CsA (30 nM), BETA (300 nM)+CsA (300 nM)): 87.2 % STIM-C
- Normalized OD (% STIM-C) ([1]; Example 24, 100000 cells/well, DEX 300 nM, CsA 300 nM, BETA 300 nM, DEX (300 nM)+CsA (30 nM), BETA (300 nM)+CsA (300 nM)): 76.5 % STIM-C
- Normalized OD (% STIM-C) ([1]; Example 25, 50000 cells/well, DEX 300 nM, CsA 300 nM, BETA 300 nM, DEX (300 nM)+CsA (30 nM), BETA (300 nM)+CsA (300 nM)): 82.2 % STIM-C
- Normalized OD (% STIM-C) ([1]; Example 27, 100000 cells/well, DEX 300 nM, CsA 300 nM): 76.3 % STIM-C
- Normalized OD (% STIM-C) [2, 11]: 101.5 % STIM-C
- Normalized OD (% STIM-C) [2, 12]: 86.4 % STIM-C
- Normalized OD (% STIM-C) [2, 13]: 105.7 % STIM-C
- Normalized OD (% STIM-C) ([2]; Example 26, 200000 cells/well, DEX 300 nM, CsA 300 nM, BETA 300 nM, DEX (300 nM)+CsA (30 nM), BETA (300 nM)+CsA (300 nM)): 101.5 % STIM-C

SMILES: C[C@]12CCC(=O)C=C1CC[C@@H]1[C@@H]2[C@@H](O)C[C@@]2(C)[C@H]1CC[C@]2(O)C(=O)CO [HC, hydrocortisone]
- Normalized OD (% STIM-C) [1, 14]: 106.8 % STIM-C
- Normalized OD (% STIM-C) [1, 15]: 92.0 % STIM-C
- Normalized OD (% STIM-C) [1, 16]: 109.0 % STIM-C
- Normalized OD (% STIM-C) [1, 17]: 106.8 % STIM-C
- Normalized OD (% STIM-C) [1, 18]: 92.0 % STIM-C
- Normalized OD (% STIM-C) ([1]; Example 19, 200000 cells/well, HC 10 μM, CsA 300 nM, BETA 300 nM, HC (10 μM)+CsA (30 nM), BETA (300 nM)+CsA (300 nM)): 106.8 % STIM-C
- Normalized OD (% STIM-C) ([1]; Example 20, 100000 cells/well, HC 10 μM, CsA 300 nM, BETA 300 nM, HC (10 μM)+CsA (30 nM), BETA (300 nM)+CsA (300 nM)): 92.0 % STIM-C
- Normalized OD (% STIM-C) ([1]; Example 21, 50000 cells/well, HC 10 μM, CsA 300 nM, BETA 300 nM, HC (10 μM)+CsA (30 nM), BETA (300 nM)+CsA (300 nM)): 109.0 % STIM-C
- inhibition at 10 µM [1, 14]: -7.4%
- inhibition at 10 µM [1, 15]: < 17%
- inhibition at 10 µM [1, 16]: -9.7%
- inhibition at 10 µM [1, 17]: -7.4%
- Normalized OD (% STIM-C) [2, 19]: 89.0 % STIM-C
- Normalized OD (% STIM-C) [2, 20]: 100.5 % STIM-C
- Normalized OD (% STIM-C) ([2]; Example 22, 200000 cells/well, HC 10 μM, CsA 300 nM, BETA 300 nM, HC (10 μM)+CsA (30 nM), BETA (300 nM)+CsA (300 nM)): 89.0 % STIM-C

SMILES: C=CC[C@@H]1/C=C(\C)C[C@H](C)C[C@H](OC)[C@H]2O[C@@](O)(C(=O)C(=O)N3CCCC[C@H]3C(=O)O[C@H](/C(C)=C/[C@@H]3CC[C@@H](O)[C@H](OC)C3)[C@H](C)[C@@H](O)CC1=O)[C@H](C)C[C@@H]2OC [FK, tacrolimus]
- Normalized OD (% STIM-C) [1, 17]: 119.9 % STIM-C
- OD [1, 17]: 0.921
- Normalized OD (% STIM-C) [1, 18]: 72.6 % STIM-C
- OD [1, 18]: 0.662
- Normalized OD (% STIM-C) [1, 7]: 100.9 % STIM-C
- OD [1, 7]: 0.795
- Normalized OD (% STIM-C) [1, 8]: 96.3 % STIM-C
- OD [1, 8]: 0.809
- Normalized OD (% STIM-C) [1, 9]: 79.6 % STIM-C
- OD [1, 9]: 0.838
- Normalized OD (% STIM-C) [1, 10]: 78.0 % STIM-C
- OD [1, 10]: 0.905
- inhibition at 0.03 µM [1, 17]: -21.9%
- inhibition at 0.03 µM [1, 18]: < 31%
- inhibition at 0.03 µM [1, 9]: < 26%
- inhibition at 0.03 µM [1, 10]: < 25%

SMILES: CC[C@@H]1/C=C(\C)C[C@H](C)C[C@H](OC)[C@H]2O[C@@](O)(C(=O)C(=O)N3CCCC[C@H]3C(=O)O[C@H](/C(C)=C/[C@@H]3CC[C@H](Cl)[C@H](OC)C3)[C@H](C)[C@@H](O)CC1=O)[C@H](C)C[C@@H]2OC [ASM, 33-epi-33-chloro-FR 520]
- Normalized OD (% STIM-C) [1, 14]: 93.9 % STIM-C
- OD [1, 14]: 0.721
- Normalized OD (% STIM-C) [1, 15]: 85.1 % STIM-C
- OD [1, 15]: 0.776
- Normalized OD (% STIM-C) [1, 16]: 113.2 % STIM-C
- OD [1, 16]: 0.994
- Normalized OD (% STIM-C) [1, 3]: 98.0 % STIM-C
- OD [1, 3]: 0.772
- Normalized OD (% STIM-C) [1, 4]: 87.4 % STIM-C
- OD [1, 4]: 0.734
- Normalized OD (% STIM-C) [1, 5]: 86.2 % STIM-C
- OD [1, 5]: 0.908
- Normalized OD (% STIM-C) [1, 6]: 79.1 % STIM-C
- OD [1, 6]: 0.918
- inhibition at 0.03 µM [1, 14]: 6.7%
- inhibition at 0.03 µM [1, 15]: < 17%
- inhibition at 0.03 µM [1, 16]: -14.3%
- inhibition at 0.03 µM [1, 4]: < 25%
- inhibition at 0.03 µM [1, 5]: < 26%
- inhibition at 0.03 µM [1, 6]: < 25%
- Normalized OD (% STIM-C) [2, 19]: 95.8 % STIM-C
- OD [2, 19]: 1.015
- Normalized OD (% STIM-C) [2, 20]: 78.1 % STIM-C
- OD [2, 20]: 0.665
- Normalized OD (% STIM-C) [2, 11]: 83.1 % STIM-C
- OD [2, 11]: 0.752
- Normalized OD (% STIM-C) [2, 12]: 67.3 % STIM-C
- OD [2, 12]: 0.660
- Normalized OD (% STIM-C) [2, 13]: 77.5 % STIM-C
- OD [2, 13]: 1.013
- inhibition at 0.03 µM [2, 20]: < 24%
- inhibition at 0.03 µM [2, 11]: < 19%
- inhibition at 0.03 µM [2, 12]: < 34%
- inhibition at 0.03 µM [2, 13]: < 24%
